ChEMBL document CHEMBL1126352, “Novel stereoselective calcium channel ligands of the diphenylalkylamine-type” (Bioorg Med Chem Lett, 1992)

target: Voltage-gated L-type calcium channel (Rattus norvegicus, UniProt P22002+Q02485+P27732); assay: Inhibition of [3H]nitrendipine binding to calcium channel of rat brain membranes.; type: cell membranes, Membrane

SMILES	Kd [M l-1]
CC(C)(C)c1ccc(CCCCN2CCC(C(O)(c3ccccc3)c3ccc(Cl)cc3)CC2)cc1 (racemic)	1.15e-7
CC(C)(C)c1ccc(CCCCN2CCC(C(O)(c3ccccc3)c3ccc(Cl)cc3)CC2)cc1 (stereo in doubt)	9.36e-8
CC(Cc1ccccc1)NCCC(c1ccccc1)c1ccccc1 (stereo not drawn) [PRENYLAMINE]	2.09e-7
